Data set [1] can be described thus: Water solubility in micellar solutions of Polysorbate 80 USP. In kind it is physicochemical. The conditions noted are these: for Solubility: 25° C., pH 5.0, based on 88.8% activity. The protocol: This temperature dependence of water solubilty of active ingredient is overcome by the use of sufficient concentration of amphiphile above the cmc such that the solubility of active ingredient is […] at said lowest temperature. The water solubility of active ingredients increases with increasing concentration above the cmc as is shown below for levonantradol in micellar solutions of Polysorbate 80 USP at pH 5.0 and 25° C.

A short description of data set [2]: Stability of the active ingredient upon storage (general statement). The conditions noted are these: particularly in solution. In kind it is physicochemical.
For data set [3] the following is noted: accelerated stability studies, at least nine weeks, 37° C.
Experimental: The procedure comprises dissolving the Polysorbate 80 USP in about 60% of the required water (previously degassed to remove dissolved air) at room temperature. […] The pharmaceutical necessities; i.e., mannitol, sodium citrate and sodium metabisulfite were then added together with about 20-25% of the remaining volume of water required. The pH was adjusted to 5.5 by addition of hydrochloric acid (10%) and the balance of water then added. The resulting formulation was made sterile by filtration and stored in amber vials sealed under a nitrogen atmosphere.
The samples are analyzed for activity by a HPLC method using a Chromegabond C-8 column (silica silylated with octyltrichlorosilane, available from E. S. Industries, 8 South Maple Avenue, Marlton, N.J. 08053). The column is 4.6 mm I.D.×30 cm.; the mobile phase is 60% acetonitrile-40% phosphate buffer (0.05 M, pH 6.3) and the flow rate is 2 ml. per minute. Detection is by UV at 210 nm.

Data on three compounds can be found in US4406888A, “Aqueous micellar solutions of levonantradol and N-methyllevonantradol and lyophilic forms thereof for reconstitution” (Pfizer Inc., priority 1981, dated 1983).

Molecules are shown by their SMILES. Counter-ions that a name gives are not always drawn.

Regarding `CC(=O)Oc1cc(O[C@H](C)CCCc2ccccc2)cc2c1[C@@H]1C[C@H](O)CC[C@H]1[C@H](C)N2` [Levonantradol, [6S-[3S*,6-alpha,6a-alpha,9-alpha,10a-beta]]-5,6,6a,7,8,9,10,10a-octahydro-6-methyl-3-(1-methyl-4-phenylbutoxy)-1,9-phenanthridinediol 1-acetate, hydrochloride], the water solubility result in data set [1] (with decreasing temperature) is “reduced water solubility with decreasing temperature”. Also, the stability upon storage result in data set [2] was “subject to decomposition upon storage”. Moreover, the “stability in micellar solutions” value in data set [3] is recorded as “completely stable”.
As usually defined, the Solubility is the dissolved amount per volume that the medium holds. Take `CC(=O)Oc1cc(O[C@H](C)CCCc2ccccc2)cc2c1[C@@H]1C[C@H](O)CC[C@H]1[C@H](C)N2` [Levonantradol.HC1, [6S-[3S*,6-alpha,6a-alpha,9-alpha,10a-beta]]-5,6,6a,7,8,9,10,10a-octahydro-6-methyl-3-(1-methyl-4-phenylbutoxy)-1,9-phenanthridinediol 1-acetate, hydrochloride]: the Solubility in data set [1] (0.1% (w/v) Polysorbate 80 USP) was 2.2 µg/mL; in data set [1] (0.2% (w/v) Polysorbate 80 USP), 67 µg/mL; in data set [1] (0.3% (w/v) Polysorbate 80 USP), 130 µg/mL; in data set [1] (0.4% (w/v) Polysorbate 80 USP), 290 µg/mL; in data set [1] (0.5% (w/v) Polysorbate 80 USP) it was 430 µg/mL; in data set [1] (0.8% (w/v) Polysorbate 80 USP), 880 µg/mL. The Solubility is 1230 µg/mL in data set [1] (1.0% (w/v) Polysorbate 80 USP); 2040 µg/mL in data set [1] (1.5% (w/v) Polysorbate 80 USP); 2850 µg/mL in data set [1] (2.0% (w/v) Polysorbate 80 USP); 3810 µg/mL in data set [1] (2.5% (w/v) Polysorbate 80 USP); 4440 µg/mL in data set [1] (3.0% (w/v) Polysorbate 80 USP); 5600 µg/mL in data set [1] (3.5% (w/v) Polysorbate 80 USP). Further, the Solubility was 6300 µg/mL in data set [1] (4.0% (w/v) Polysorbate 80 USP), 6990 µg/mL in data set [1] (4.5% (w/v) Polysorbate 80 USP), 7550 µg/mL in data set [1] (5.0% (w/v) Polysorbate 80 USP) and 11280 µg/mL in data set [1] (7.0% (w/v) Polysorbate 80 USP). The water solubility entry in data set [1] (presence of a relatively low concentration of Polysorbate 80) is on record as “markedly increased”.
In the case of `CC(=O)Oc1cc(O[C@H](C)CCCc2ccccc2)cc2c1[C@@H]1C[C@H](O)CC[C@H]1[C@H](C)N2C` [N-methyllevonantradol], the water solubility entry in data set [1] (with decreasing temperature) was “reduced water solubility with decreasing temperature”. In addition, the stability upon storage entry in data set [2] is “subject to decomposition upon storage”.
